Measurements published in publication PMC9036659, “Boron-containing capsaicinoids” (RSC Advances, 2021).
Blank lines part the entries; values can stand above or below the compound they belong to.

Columns and labels:
[1] = test system: vancomycin-resistant Enterococcus; design: method as in doi:10.1139/cjc-2018-0193; conditions: data collected in previous study, Inactive = inhibition above 400 μM, cited from earlier work
MRSA = test system: MRSA; design: method as in doi:10.1139/cjc-2018-0193; conditions: data collected in previous study; Inactive = inhibition above 400 μM; cited from earlier work
[2] = test system: green monkey kidney cells Vero (ATCC CCL-81); experiment: Cytotoxicity assay (Alamar blue), Vero; assay type: cell-based; conditions: for IC50: Chlorocebus sabaeus, Vero, read-out: IC50 Vero (normal cell line)
Method: (§1) The cells (human foreskin BJ fibroblast cells (ATCC CRL-2522), green monkey kidney cells Vero (ATCC CCL-81), human breast adenocarcinoma cells (ATCC HTB-26 MDA-MB 231), human breast adenocarcinoma cells (MCF7 ATCC HTB-22), and human colorectal carcinoma cells (HCT116 ATCC CCL-247)) were grown to 80% confluency, the cells were counted, diluted, and plated into treated 96-well cell culture plates. The BJ fibroblast and Vero cells were plated at a cell density of 10 000 cells per well and the HTB26, HCT116 and MCF7 cells were plated at cell density of 5000 cells per well in 90 μL of respective growth medium (without the addition of antibiotics) and incubated for 24 h to allow cells to adhere to the plates before treatment. Pure compounds were tested in triplicate in serial dilutions of seven concentrations ranging from 2 to 128 μg mL^−1 per well (final well volume of 100 μL, 1% DMSO per well). Each of the cell lines were incubated at 37 °C in a humidified atmosphere of 5% CO2; the BJ fibroblast and Vero cells for 24 h and the HTB-26, HCT116 and MCF7 cells for 72 h. Each plate contained four uninoculated positive controls, four untreated negative controls, and one column containing a concentration range for doxorubicin. Alamar blue was added, 24 h after the treatment, and fluorescence was monitored using a Cytation Gen 5 plate reader using 560 nm Ex/590 Em both at time zero and 4 h after Alamar blue addition. The inferred percentage of cell viability relative to vehicle control wells were calculated after subtracting the time zero emission 590 nm measurement from the final reading and the IC50 was determined. […]
(§2) Cytotoxicity Assay Data Alamar blue was added, 24 h after the treatment, and fluorescence was monitored using a Cytation Gen 5 plate reader using 560 nm Ex/590 Em both at time zero and 4 h after Alamar blue addition. The inferred percentage of cell viability relative to vehicle control wells were calculated after subtracting the time zero emission 590 nm measurement from the final reading and the IC50 was determined.

[3] = test system: Candida albicans (ATCC 14035); experiment: Antimicrobial assay, C. albicans (OD600); assay type: cell-based
Method: (§3) The microorganisms (methicillin-resistant S. aureus MRSA 310, vancomycin-resistant E. faecium VRE 379, S. warneri (ATCC 17917), P. vulgaris (ATCC 12454), P. aeruginosa (ATCC 14210), and C. albicans (ATCC 14035)) were grown overnight on agar media. The following day the cultures were transferred into 0.9% saline water into a sterile glass tube. Using the McFarland reader, the turbidity was determined and further diluted into their respective media. The pure compounds were tested at seven different concentrations ranging from 2 to 128 μg mL^−1 in triplicate. Samples were plated into 96 well plates (10 μL in 20% DMSO) and then diluted pathogen (90 μL) was pipetted into the pre-prepared sample plates yielding 5 × 10^5 cfu mL^−1 with a final volume of 100 μL. Antibiotics that are active against specific pathogens were used as positive controls. The plates were incubated into a 37 °C incubator for 22 h. Growth of S. warneri. P. vulgaris, P. aeruginosa and C. albicans were measured by reading optical density (OD600), or in the case of slow growing microorganisms (MRSA and VRE), PrestoBlue was used to assess metabolic activity by measuring fluorescence (535–560)/(590–615) (excitation/emission) using a Thermo Scientific Varioskan Flash plate reader at time zero and then again after incubation of the plates for 22 h at 37 °C. After subtracting the time zero OD600 from the final reading, the percentages of microorganism survival relative to vehicle control wells were calculated. […]
(§4) Antimicrobial Assay Data Growth of S. warneri. P. vulgaris, P. aeruginosa and C. albicans were measured by reading optical density (OD600), or in the case of slow growing microorganisms (MRSA and VRE), PrestoBlue was used to assess metabolic activity by measuring fluorescence (535-560)⁄(590-615) (excitation/emission) using a Thermo Scientific Varioskan Flash plate reader at time zero and then again after incubation of the plates for 22 h at 37 °C. After subtracting the time zero OD600 from the final reading, the percentages of microorganism survival relative to vehicle control wells were calculated. […]

[4] = test system: methicillin-resistant Staphylococcus aureus MRSA 310; experiment: Antimicrobial assay, MRSA (PrestoBlue fluorescence); assay type: cell-based
Method: as §3, §4

[5] = test system: Pseudomonas aeruginosa (ATCC 14210); experiment: Antimicrobial assay, P. aeruginosa (OD600); assay type: cell-based
Method: as §3, §4

[6] = test system: human colorectal carcinoma cells (HCT116 ATCC CCL-247); experiment: Cytotoxicity assay (Alamar blue), HCT116; assay type: cell-based; conditions: for IC50: Homo sapiens, HCT-116, 72 h incubation, average ± SD, Inactive = inhibition above 300 μM, read-out: IC50 HCT (cancer cell line)
Method: as §1, §2

[7] = test system: human breast adenocarcinoma cells (MCF7 ATCC HTB-22); experiment: Cytotoxicity assay (Alamar blue), MCF7; assay type: cell-based; conditions: for IC50: Homo sapiens, MCF7, read-out: IC50 MCF7 (cancer cell line)
Method: as §1, §2

[8] = test system: human foreskin BJ fibroblast cells (ATCC CRL-2522); experiment: Cytotoxicity assay (Alamar blue), BJ; assay type: cell-based; conditions: for IC50: Homo sapiens, Fibroblast, read-out: IC50 BJ (normal cell line)
Method: as §1, §2

[9] = test system: Proteus vulgaris (ATCC 12454); experiment: Antimicrobial assay, P. vulgaris (OD600); assay type: cell-based
Method: as §3, §4

[10] = test system: vancomycin-resistant Enterococcus faecium VRE 379; experiment: Antimicrobial assay, VRE (PrestoBlue fluorescence); assay type: cell-based
Method: as §3, §4

[11] = test system: human breast adenocarcinoma cells (ATCC HTB-26 MDA-MB 231); experiment: Cytotoxicity assay (Alamar blue), HTB-26; assay type: cell-based; conditions: for IC50: Homo sapiens, HTB26, 72 h incubation, average ± SD, Inactive = inhibition above 300 μM, read-out: IC50 HTB (cancer cell line)
Method: as §1, §2

[12] = test system: Staphylococcus warneri (ATCC 17917); experiment: Antimicrobial assay, S. warneri (OD600); assay type: cell-based
Method: as §3, §4

[13] = 24 h incubation, average ± SD, Inactive = inhibition above 300 μM
[14] = 72 h incubation, average ± SD, Inactive = inhibition above 300 μM

Compound: COc1cc(CNC(=O)CCCCCCCCCCB2OC(C)(C)C(C)(C)O2)ccc1OCc1ccccc1 [Compound 8b]
VRE MIC90 [1]: Inactive
IC50 ([1]; read-out: VRE IC50): 277 µM
IC50 (MRSA): 245 µM
MRSA MIC90 (MRSA): Inactive

melting point: 31.5 to 33.8 °C
Compound: CCCCCC(=O)N(Cc1ccc(OC)c(OC)c1)c1ccccc1 [Compound 21, N-(3,4-dimethoxyphenylmethyl)-N-(phenyl)-hexanamide]

melting point: 51.5 to 53.5 °C
Compound: CCCCCC(=O)N(Cc1ccc(OC)c(OC)c1)c1ccc(B2OC(C)(C)C(C)(C)O2)cc1 [Compound 23, N-(3,4-dimethoxyphenylmethyl)-N-[4-(4,4,5,5-tetramethyl-1,3,2-dioxaborolan-2-yl)phenyl]-hexanamide]
IC50 Vero (normal cell line) [2, 13]: Inactive
antimicrobial activity against C. albicans (in words) [3]: inactive
antimicrobial activity against MRSA (in words) [4]: inactive
antimicrobial activity against P. aeruginosa (in words) [5]: inactive
cytotoxic activity against HCT116 (in words) [6]: selective but low to moderate activity
IC50 [6]: 118 ± 4.9 µM
cytotoxic activity against MCF7 (in words) [7]: selective but low to moderate activity
IC50 MCF7 (cancer cell line) [7, 14]: Inactive
IC50 BJ (normal cell line) [8, 13]: Inactive
antimicrobial activity against P. vulgaris (in words) [9]: inactive
antimicrobial activity against VRE (in words) [10]: inactive
cytotoxic activity against HTB-26 MDA-MB 231 (in words) [11]: selective but low to moderate activity
IC50 [11]: 85.8 ± 7.1 µM
antimicrobial activity against S. warneri (in words) [12]: inactive

melting point: 58.1 to 59.8 °C
Compound: CCCCCCCCCC(=O)N(Cc1ccc(OC)c(OC)c1)c1ccc(B2OC(C)(C)C(C)(C)O2)cc1 [Compound 24, N-(3,4-dimethoxyphenylmethyl)-N-[4-(4,4,5,5-tetramethyl-1,3,2-dioxaborolan-2-yl)phenyl]-decanamide]
cytotoxic activity against Vero (in words) [2]: unselective cytotoxic effects
IC50 [2, 13]: 26.9 ± 4.4 µM
antimicrobial activity against C. albicans (in words) [3]: inactive
antimicrobial activity against MRSA (in words) [4]: inactive
antimicrobial activity against P. aeruginosa (in words) [5]: inactive
cytotoxic activity against HCT116 (in words) [6]: unselective cytotoxic effects
IC50 [6]: 33.8 ± 2.1 µM
cytotoxic activity against MCF7 (in words) [7]: unselective cytotoxic effects
IC50 [7, 14]: 24.1 ± 3.8 µM
cytotoxic activity against BJ (in words) [8]: unselective cytotoxic effects
IC50 [8, 13]: 36.1 ± 0.8 µM
antimicrobial activity against P. vulgaris (in words) [9]: inactive
antimicrobial activity against VRE (in words) [10]: inactive
cytotoxic activity against HTB-26 MDA-MB 231 (in words) [11]: unselective cytotoxic effects
IC50 [11]: 25.2 ± 1.3 µM
antimicrobial activity against S. warneri (in words) [12]: inactive

Compound: CCCCc1ccc(N(Cc2ccc(OC)c(OC)c2)C(=O)CCCCCCCCB2OC(C)(C)C(C)(C)O2)cc1 [Compound 33, N-(4-butylphenyl)-N-(3,4-dimethoxybenzyl)-9-(4,4,5,5-tetramethyl-1,3,2-dioxaborolan-2-yl)nonamide]
cytotoxic activity against Vero (in words) [2]: unselective cytotoxic effects
IC50 [2, 13]: 20.9 ± 1.2 µM
antimicrobial activity against C. albicans (in words) [3]: inactive
antimicrobial activity against MRSA (in words) [4]: inactive
antimicrobial activity against P. aeruginosa (in words) [5]: inactive
cytotoxic activity against HCT116 (in words) [6]: unselective cytotoxic effects
IC50 [6]: 20.3 ± 0.7 µM
cytotoxic activity against MCF7 (in words) [7]: unselective cytotoxic effects
IC50 [7, 14]: 3.4 ± 2.2 µM
cytotoxic activity against BJ (in words) [8]: unselective cytotoxic effects
IC50 [8, 13]: 24.2 ± 0.2 µM
antimicrobial activity against P. vulgaris (in words) [9]: inactive
antimicrobial activity against VRE (in words) [10]: inactive
cytotoxic activity against HTB-26 MDA-MB 231 (in words) [11]: unselective cytotoxic effects
IC50 [11]: 21.2 ± 3.5 µM
antimicrobial activity against S. warneri (in words) [12]: inactive

Compound: CCCCCCCCCCCCCCc1ccc(N(Cc2ccc(OC)c(OC)c2)C(=O)CCCCCCCCB2OC(C)(C)C(C)(C)O2)cc1 [Compound 34, N-(3,4-dimethoxybenzyl)-N-(4-tetradecylphenyl)-9-(4,4,5,5-tetramethyl-1,3,2-dioxaborolan-2-yl)nonamide]
cytotoxic activity against Vero (in words) [2]: inactive
antimicrobial activity against C. albicans (in words) [3]: inactive
antimicrobial activity against MRSA (in words) [4]: inactive
antimicrobial activity against P. aeruginosa (in words) [5]: inactive
cytotoxic activity against HCT116 (in words) [6]: inactive
cytotoxic activity against MCF7 (in words) [7]: inactive
cytotoxic activity against BJ (in words) [8]: inactive
antimicrobial activity against P. vulgaris (in words) [9]: inactive
antimicrobial activity against VRE (in words) [10]: inactive
cytotoxic activity against HTB-26 MDA-MB 231 (in words) [11]: inactive
antimicrobial activity against S. warneri (in words) [12]: inactive

Compound: OB(O)c1ccccc1 [Phenylboronic acid]
VRE IC50 [1]: Inactive
VRE MIC90 [1]: Inactive
IC50 (MRSA): 170 µM
MRSA MIC90 (MRSA): Inactive
